Measured values from ChEMBL document CHEMBL3632538, “Novel 5-carboxy-8-HQ based histone demethylase JMJD2A inhibitors: introduction of an additional carboxyl group at the C-2 position of quinoline” (Eur J Med Chem, 2015).
Converted amounts (≈) assume the structure as drawn. The source made the active and inactive calls. No cut-off for these calls is given here.

Assays:
HCT-116 = experiment: Cytotoxicity against human HCT116 cells assessed as cell viability after 48 hrs by MTT assay; assay type: functional, cell-based; conditions: HCT-116, 48 h
MCF7 = experiment: Cytotoxicity against human MCF7 cells assessed as cell viability after 48 hrs by MTT assay; assay type: functional, cell-based; conditions: MCF7, 48 h
[1] = target: Egl nine homolog 1 (Homo sapiens) (UniProt Q9GZT9); experiment: Displacement of F-HIF1alpha from PHD2 (unknown origin) at 50 uM by fluorescence polarization assay relative to control
Sequence of Egl nine homolog 1 (Homo sapiens) (Q9GZT9 2-426 limits assumed): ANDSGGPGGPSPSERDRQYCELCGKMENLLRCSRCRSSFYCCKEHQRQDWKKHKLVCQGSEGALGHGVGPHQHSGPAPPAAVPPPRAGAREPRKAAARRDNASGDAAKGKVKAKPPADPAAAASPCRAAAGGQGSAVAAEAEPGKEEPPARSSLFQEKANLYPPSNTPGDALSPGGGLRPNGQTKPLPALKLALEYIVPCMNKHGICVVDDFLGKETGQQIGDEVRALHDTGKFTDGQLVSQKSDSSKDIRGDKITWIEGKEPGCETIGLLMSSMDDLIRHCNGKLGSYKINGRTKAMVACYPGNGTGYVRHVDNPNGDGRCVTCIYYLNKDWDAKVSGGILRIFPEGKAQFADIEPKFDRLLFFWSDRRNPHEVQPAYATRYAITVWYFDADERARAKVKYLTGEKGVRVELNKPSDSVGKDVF

A549 = experiment: Cytotoxicity against human A549 cells assessed as cell viability after 48 hrs by MTT assay; assay type: functional, cell-based; conditions: A549, 48 h
[2] = Intrinsic aqueous solubility of the compound after 24 hrs by UV spectrophotometric analysis; assay type: physicochemical; conditions: read-out: Intrinsic_solubility
[3] = Partition co-efficient, log D of the compound at pH 7.4; assay type: physicochemical; conditions: buffer
[4] = Permeability of the compound at 10 mM after 4 hrs by PAMPA; assay type: physicochemical; conditions: read-out: permeability
[5] = target: T1, Lysine-specific demethylase 4A (Homo sapiens, UniProt O75164); experiment: Inhibition of recombinant human JMJD2A using biotinylated histone H3 as substrate by AlphaScreen assay
T1 sequence (O75164 whole entry): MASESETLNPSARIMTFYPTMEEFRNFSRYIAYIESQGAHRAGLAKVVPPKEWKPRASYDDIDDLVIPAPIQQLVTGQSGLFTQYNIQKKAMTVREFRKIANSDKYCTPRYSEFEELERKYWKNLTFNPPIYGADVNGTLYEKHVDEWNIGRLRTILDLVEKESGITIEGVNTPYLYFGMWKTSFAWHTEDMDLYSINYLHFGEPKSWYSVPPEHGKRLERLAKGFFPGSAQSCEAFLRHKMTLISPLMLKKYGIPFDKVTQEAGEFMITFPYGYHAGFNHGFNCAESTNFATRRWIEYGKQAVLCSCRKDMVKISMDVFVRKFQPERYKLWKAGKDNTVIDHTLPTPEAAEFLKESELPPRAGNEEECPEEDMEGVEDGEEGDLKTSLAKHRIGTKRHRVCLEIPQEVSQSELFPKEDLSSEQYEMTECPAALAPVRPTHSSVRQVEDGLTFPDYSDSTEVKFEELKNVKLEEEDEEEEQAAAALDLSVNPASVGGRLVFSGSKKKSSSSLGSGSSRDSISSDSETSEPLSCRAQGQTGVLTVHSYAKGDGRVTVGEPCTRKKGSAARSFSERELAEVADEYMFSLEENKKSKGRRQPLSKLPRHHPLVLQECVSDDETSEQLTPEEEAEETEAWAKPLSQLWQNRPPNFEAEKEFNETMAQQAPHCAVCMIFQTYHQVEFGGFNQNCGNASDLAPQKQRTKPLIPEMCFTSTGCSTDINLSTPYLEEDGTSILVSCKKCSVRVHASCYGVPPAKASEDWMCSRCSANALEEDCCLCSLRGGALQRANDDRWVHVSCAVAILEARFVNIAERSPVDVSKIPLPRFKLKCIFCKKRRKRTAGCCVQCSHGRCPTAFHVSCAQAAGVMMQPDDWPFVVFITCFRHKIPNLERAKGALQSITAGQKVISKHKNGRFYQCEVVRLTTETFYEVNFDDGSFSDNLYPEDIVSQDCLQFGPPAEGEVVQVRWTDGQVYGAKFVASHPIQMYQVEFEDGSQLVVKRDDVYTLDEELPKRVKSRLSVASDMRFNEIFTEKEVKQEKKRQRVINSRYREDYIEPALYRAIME

[6] = target: T2, Lysine-specific demethylase 4A (Homo sapiens) (UniProt O75164); experiment: Inhibition of JMJD2A in human HCT116 cells assessed as induction of H3K9me2 hypermethylation at 5 to 10 uM by Western blot analysis; assay type: cell-based; conditions: HCT-116
T2 sequence (whole entry): T1 sequence (O75164 whole entry)

[7] = target: T2, Lysine-specific demethylase 4A (Homo sapiens); experiment: Inhibition of JMJD2A in human HCT116 cells assessed as induction of H3K9me3 hypermethylation at 5 to 10 uM by Western blot analysis; assay type: cell-based; conditions: HCT-116

SMILES	IC50 (HCT-116)	IC50 (MCF7)	inhibition [1]	IC50 (A549)	solubility at 24 h [2]	logD [3]	Papp at 4 h, 10000 µM [4]	IC50 [5]	inhibition [6]	inhibition [7]
O=C(O)c1ccc(O)c2ncccc12	28.1 µM	66.4 µM	66.3%	48.2 µM	1200 µM (≈ 227 µg/mL)	-1.9	2 ×10⁻⁶ cm/s			
Cc1cccc(NC(=O)c2ccc3c(C(=O)O)ccc(O)c3n2)c1								> 100 µM		
COc1ccc(NC(=O)c2ccc3c(C(=O)O)ccc(O)c3n2)cc1								> 100 µM		
O=C(Nc1ccc(OC(F)(F)F)cc1)c1ccc2c(C(=O)O)ccc(O)c2n1								> 100 µM		
CN1CCN(C(=O)c2ccc3c(C(=O)O)ccc(O)c3n2)CC1	94.9 µM	95 µM	18.7%	> 100 µM	4900 µM (≈ 1550 µg/mL)	0.3	3.3 ×10⁻⁶ cm/s	1.6 µM		
Cc1ccc(NC(=O)c2ccc3c(C(=O)O)ccc(O)c3n2)cc1								> 100 µM		
O=C(NCCCN1CCOCC1)c1ccc2c(C(=O)O)ccc(O)c2n1	> 100 µM	> 100 µM		> 100 µM				82 µM		
CN(C)c1ccc(NC(=O)c2ccc3c(C(=O)O)ccc(O)c3n2)cc1								> 100 µM		
O=C(Nc1ccc(F)cc1)c1ccc2c(C(=O)O)ccc(O)c2n1								> 100 µM		
O=C(Nc1nc2ccccc2[nH]1)c1ccc2c(C(=O)O)ccc(O)c2n1	1.5 µM	27.6 µM	25%	21.7 µM	1300 µM (≈ 453 µg/mL)	2.7	6.7 ×10⁻⁶ cm/s	19 µM	Active	Active
O=C(Nc1ccccc1)c1ccc2c(C(=O)O)ccc(O)c2n1								> 100 µM		
Cc1ccccc1NC(=O)c1ccc2c(C(=O)O)ccc(O)c2n1	59.6 µM	> 100 µM		94.6 µM	700 µM (≈ 226 µg/mL)	3	3.9 ×10⁻⁶ cm/s	> 100 µM		
CCN(CC)C(=O)c1ccc2c(C(=O)O)ccc(O)c2n1	11.1 µM	> 100 µM	23.9%	> 100 µM	3600 µM (≈ 1040 µg/mL)	1.5	2.3 ×10⁻⁶ cm/s	1.8 µM		
O=C(NCc1ccccc1)c1ccc2c(C(=O)O)ccc(O)c2n1								> 100 µM		
O=C(O)c1ccc(O)c2nc(C(=O)N3CCOCC3)ccc12	> 100 µM	> 100 µM	9.1%	> 100 µM				5.1 µM		
O=C(NCCc1c[nH]c2ccccc12)c1ccc2c(C(=O)O)ccc(O)c2n1	68.3 µM	> 100 µM	20.6%	> 100 µM	900 µM (≈ 338 µg/mL)	2.9	3.6 ×10⁻⁶ cm/s	24 µM		
O=C(Nc1cccc2ccccc12)c1ccc2c(C(=O)O)ccc(O)c2n1								> 100 µM		
Cc1ccc(NC(=O)c2ccc3c(C(=O)O)ccc(O)c3n2)nc1	72.7 µM	> 100 µM	23.5%	22.2 µM				6.2 µM		
O=C(Nc1ccccc1F)c1ccc2c(C(=O)O)ccc(O)c2n1								> 100 µM		
COc1cccc(NC(=O)c2ccc3c(C(=O)O)ccc(O)c3n2)c1								> 100 µM		
O=C(NC1CCCCC1)c1ccc2c(C(=O)O)ccc(O)c2n1								> 100 µM		
O=C(Nc1ccccn1)c1ccc2c(C(=O)O)ccc(O)c2n1	67 µM	43.4 µM	24%	72.2 µM	1200 µM (≈ 371 µg/mL)	1.2	2.9 ×10⁻⁶ cm/s	2.8 µM		
CN(C)C(=O)c1ccc2c(C(=O)O)ccc(O)c2n1	> 100 µM	> 100 µM	17.6%	> 100 µM	3800 µM (≈ 989 µg/mL)	0.4	3 ×10⁻⁶ cm/s	3.7 µM		
